Experimental data as given in US10709725B2, “Gemcitabine ProTide hypoxia-activated prodrug and application thereof” (JIANGSU QIANZHIKANG BIOLOGICAL MEDICINE SCIENCE AND …, priority 2016, dated 2020).
≈ marks a conversion by molar mass, not a printed value. Like-named read-outs stand apart in the source and are kept apart here.

Key:
Type in all cases: cell-based
[1] = tested on: Human pancreatic adenocarcinoma cell BxPC-3 cell; test: In-vitro inhibition of tumor cell proliferation (3H-TdR, 72 h), normal oxygen and hypoxic; parameters: Median inhibition concentration IC50 normal oxygen (air) / Median inhibition concentration IC50 hypoxic (nitrogen): unit not given here; details: for IC50: Homo sapiens
[2] = tested on: Human liver cancer HepG2 cell; test: as above; details: HepG2, 72 h
Experimental: (§1) Take tumor cells in the logarithmic growth phase, add 0.25% pancreatin for digestion for 3 min, use RPMI-1640 containing 10% calf serum for suspension culture of the cells, count the number, adjust cell concentration to 1×10^5 cells/mL, inoculate to a Top-count dedicated 96-well cell culture plate at 100 μL/well, and incubate at 37° C. and 5% CO2 for 24 h; divide the cells into experimental groups and control groups, and add a target compound solution (0.001 μg/mL, 0.01 μg/mL, 0.1 μg/mL, 1 μg/mL, 10 μg/mL) to the experimental groups, wherein each concentration corresponded to four wells, and the volume of each well was made up to 200 μL; after adding samples, continue to culture for 72 h for each group (for hypoxic groups, continue to culture for 72 h at 5% CO2, 95% N2), add ^3H-TdR 3×10^5Bq to each group before culture ended, and measure the CPM (count per minute) value of each well with Top-count; and calculate the median inhibition concentration (IC50) of drugs in each experimental group on cell proliferation.

[3] = tested on: Human lung adenocarcinoma cell A549; test: as above; details: A549, 72 h
Experimental: as §1

tumor cells = test: In-vitro inhibition of tumor cell proliferation, hypoxic versus normal oxygen; details: in words, see Table 1
Experimental: as §1

[4] = BxPC-3, 72 h, hypoxic (5% CO2, 95% N2), read-out: Median inhibition concentration IC50 hypoxic (nitrogen)
[5] = BxPC-3, 72 h, normal oxygen (air), read-out: Median inhibition concentration IC50 normal oxygen (air)
[6] = hypoxic (5% CO2, 95% N2), read-out: Median inhibition concentration IC50 hypoxic (nitrogen)
[7] = normal oxygen (air), read-out: Median inhibition concentration IC50 normal oxygen (air)
[8] = BXPC-3, 72 h, hypoxic (5% CO2, 95% N2), read-out: Median inhibition concentration IC50 hypoxic (nitrogen)
[9] = BXPC-3, 72 h, normal oxygen (air), read-out: Median inhibition concentration IC50 normal oxygen (air)
[10] = BxPC-3, 72 h, hypoxic (5% CO2, 95% N2)
[11] = BxPC-3, 72 h, normal oxygen (air)

SMILES | IC50 [2, 6] [mg/L] | IC50 [2, 7] [mg/L] | IC50 [3, 6] [mg/L] | IC50 [3, 7] [mg/L] | IC50 [1, 8] [mg/L] | IC50 [1, 9] [mg/L] | other results
C[C@H](NP(=O)(OC[C@H]1O[C@@H](n2ccc(N)nc2=O)C(F)(F)C1O)Oc1ccccc1)C(=O)OC(C)(C)c1ccc([N+](=O)[O-])cc1 (stereo partly shown) [Compound 002] | 0.2 (≈ 0.306 µM) | > 10 | 0.1 (≈ 0.153 µM) | 2 (≈ 3.06 µM) | – | – | IC50 [1, 4]: 0.4 mg/L (≈ 0.612 µM); IC50 [1, 5]: > 10 mg/L
CC(OC(=O)[C@H](C)NP(=O)(OC[C@H]1O[C@@H](n2ccc(N)nc2=O)C(F)(F)C1O)Oc1ccccc1)c1cnc([N+](=O)[O-])n1C (stereo partly shown) [Compound 003] | 0.4 (≈ 0.622 µM) | > 10 | – | – | – | – | –
CC(OC(=O)[C@H](C)NP(=O)(OC[C@H]1O[C@@H](n2cnc(N)nc2=O)C(F)(F)C1O)Oc1ccccc1)c1ccc([N+](=O)[O-])o1 (stereo partly shown) [Compound 004] | – | – | – | – | – | – | IC50 [1, 4]: 0.4 mg/L (≈ 0.634 µM); IC50 [1, 5]: > 10 mg/L
CC(OC(=O)[C@H](C)NP(=O)(OC[C@H]1O[C@@H](n2ccc(N)nc2=O)C(F)(F)C1O)Oc1ccccc1)c1ccc([N+](=O)[O-])s1 (stereo partly shown) [Compound 005] | – | – | 0.1 (≈ 0.155 µM) | 2 (≈ 3.1 µM) | – | – | –
CC(OP(=O)(N[C@@H](C)C(=O)OCc1ccccc1)OC[C@H]1O[C@@H](n2ccc(N)nc2=O)C(F)(F)C1O)c1ccc([N+](=O)[O-])cc1 (stereo partly shown) [Compound 006] | – | – | 0.2 (≈ 0.306 µM) | 2 (≈ 3.06 µM) | 0.4 (≈ 0.612 µM) | > 10 | –
COC(=O)[C@H](C)NP(=O)(OC[C@H]1O[C@@H](n2cnc(N)nc2=O)C(F)(F)C1O)OC(C)c1ccc([N+](=O)[O-])cc1 (stereo partly shown) [Compound 007] | 0.5 (≈ 0.864 µM) | > 10 | – | – | 0.4 (≈ 0.692 µM) | > 10 | –
CCOC(=O)[C@H](C)NP(=O)(OC[C@H]1O[C@@H](n2cnc(N)nc2=O)C(F)(F)C1O)OC(C)c1ccc([N+](=O)[O-])cc1 (stereo partly shown) [Compound 008] | 0.3 (≈ 0.506 µM) | > 10 | – | – | 0.4 (≈ 0.675 µM) | > 10 | –
CC(C)OC(=O)[C@H](C)NP(=O)(OC[C@H]1O[C@@H](n2cnc(N)nc2=O)C(F)(F)C1O)OC(C)c1ccc([N+](=O)[O-])cc1 (stereo partly shown) [Compound 009] | – | – | 0.2 (≈ 0.33 µM) | 2 (≈ 3.3 µM) | 0.4 (≈ 0.66 µM) | > 10 | –
CCCCOC(=O)[C@H](C)NP(=O)(OC[C@H]1O[C@@H](n2cnc(N)nc2=O)C(F)(F)C1O)OC(C)c1ccc([N+](=O)[O-])cc1 (stereo partly shown) [Compound 010] | – | – | 0.2 (≈ 0.322 µM) | 2 (≈ 3.22 µM) | – | – | –
CC(OP(=O)(N[C@@H](C)C(=O)OCC(C)(C)C)OC[C@H]1O[C@@H](n2cnc(N)nc2=O)C(F)(F)C1O)c1ccc([N+](=O)[O-])cc1 (stereo partly shown) [Compound 011] | – | – | 0.2 (≈ 0.315 µM) | 2 (≈ 3.15 µM) | – | – | –
CC(OP(=O)(N[C@@H](C)C(=O)OC1CCCCC1)OC[C@H]1O[C@@H](n2cnc(N)nc2=O)C(F)(F)C1O)c1ccc([N+](=O)[O-])cc1 (stereo partly shown) [Compound 012] | 0.5 (≈ 0.773 µM) | > 10 | – | – | 0.5 (≈ 0.773 µM) | > 10 | –
C[C@H](NP(=O)(OCc1ccc([N+](=O)[O-])s1)OC[C@H]1O[C@@H](n2cnc(N)nc2=O)C(F)(F)C1O)C(=O)OC1CCCCC1 (stereo partly shown) [Compound 013] | – | – | – | – | 0.8 (≈ 1.25 µM) | > 10 | –
COC(=O)[C@H](C)NP(=O)(OC[C@H]1O[C@@H](n2cnc(N)nc2=O)C(F)(F)C1O)OC(C)c1ccc([N+](=O)[O-])cc1 (stereo partly shown) [Compound 014] | – | – | – | – | – | – | Median inhibition concentration IC50 hypoxic (nitrogen) [1, 10]: 0.7; Median inhibition concentration IC50 normal oxygen (air) [1, 11]: > 10
C[C@H](NP(=O)(OCc1ccc([N+](=O)[O-])o1)OC[C@H]1O[C@@H](n2ccc(N)nc2=O)C(F)(F)C1O)C(=O)OCc1ccccc1 (stereo partly shown) [Compound 015] | – | – | – | – | 0.5 (≈ 0.794 µM) | > 10 | –
CC(C)OC(=O)[C@H](C)NP(=O)(OCc1ccc([N+](=O)[O-])s1)OC[C@H]1O[C@@H](n2cnc(N)nc2=O)C(F)(F)C1O (stereo partly shown) [Compound 016] | – | – | – | – | 0.4 (≈ 0.668 µM) | > 10 | –
CCOC(=O)[C@H](C)NP(=O)(OCc1cnc([N+](=O)[O-])n1C)OC[C@H]1O[C@@H](n2cnc(N)nc2=O)C(F)(F)C1O (stereo partly shown) [Compound 017] | – | – | – | – | 0.8 (≈ 1.37 µM) | > 10 | –
COc1ccc(COP(=O)(N[C@@H](C)C(=O)OC(C)c2ccc([N+](=O)[O-])o2)OC[C@H]2O[C@@H](n3ccc(N)nc3=O)C(F)(F)C2O)cc1 (stereo partly shown) [Compound 018] | – | – | – | – | 0.5 (≈ 0.742 µM) | > 10 | –
Cc1ccccc1COP(=O)(N[C@@H](C)C(=O)OC(C)(C)c1ccc([N+](=O)[O-])s1)OC[C@H]1O[C@@H](n2ccc(N)nc2=O)C(F)(F)C1O (stereo partly shown) [Compound 019] | – | – | – | – | 0.8 (≈ 1.16 µM) | > 10 | –
CC(OC(=O)[C@H](C)NP(=O)(OCc1ccc(N(C)C)cc1)OC[C@H]1O[C@@H](n2ccc(N)nc2=O)C(F)(F)C1O)c1ccc([N+](=O)[O-])cc1 (stereo partly shown) [Compound 020] | – | – | – | – | 0.4 (≈ 0.574 µM) | > 10 | –
COc1ccccc1COP(=O)(N[C@@H](C)C(=O)OC(C)c1cnc([N+](=O)[O-])n1C)OC[C@H]1O[C@@H](n2ccc(N)nc2=O)C(F)(F)C1O (stereo partly shown) [Compound 021] | – | – | – | – | 0.5 (≈ 0.727 µM) | > 10 | –
CC(OC(=O)Nc1ccn([C@@H]2O[C@H](COP(=O)(N[C@@H](C)C(=O)OCc3ccccc3)Oc3ccccc3)C(O)C2(F)F)c(=O)n1)c1ccc([N+](=O)[O-])cc1 (stereo partly shown) [Compound 022] | 0.3 (≈ 0.388 µM) | 0.4 (≈ 0.517 µM) | 0.01 (≈ 0.0129 µM) | 0.01 (≈ 0.0129 µM) | – | – | Cytotoxicity under a hypoxic condition compared with that under a normal oxygen condition (tumor cells): not significantly different; IC50 ([1]; BXPC-3, 72 h, read-out: Median inhibition concentration IC50 hypoxic (nitrogen)): 0.1 mg/L (≈ 0.129 µM); IC50 ([1]; BXPC-3, 72 h, read-out: Median inhibition concentration IC50 normal oxygen (air)): 0.1 mg/L (≈ 0.129 µM)
C[C@H](NP(=O)(OC[C@H]1O[C@@H](n2ccc(N)nc2=O)C(F)(F)C1O)Oc1ccccc1)C(=O)OCc1ccc([N+](=O)[O-])cc1 (stereo partly shown) [Compound 023] | 0.3 (≈ 0.48 µM) | 0.4 (≈ 0.64 µM) | 0.01 (≈ 0.016 µM) | 0.01 (≈ 0.016 µM) | – | – | Cytotoxicity under a hypoxic condition compared with that under a normal oxygen condition (tumor cells): not significantly different; IC50 [1, 4]: 0.1 mg/L (≈ 0.16 µM); IC50 [1, 5]: 0.1 mg/L (≈ 0.16 µM)
C[C@H](NP(=O)(OCc1ccccc1Cl)OC[C@H]1O[C@@H](n2ccc(N)nc2=O)C(F)(F)C1O)C(=O)OC(C)(C)c1ccc([N+](=O)[O-])s1 (stereo partly shown) [Compound 024] | – | – | – | – | – | – | Cytotoxicity under a hypoxic condition compared with that under a normal oxygen condition (tumor cells): differed slightly; Median inhibition concentration IC50 hypoxic (nitrogen) [1, 10]: >10; Median inhibition concentration IC50 normal oxygen (air) [1, 11]: >10
Nc1ccn([C@@H]2O[C@H](CO)[C@@H](O)C2(F)F)c(=O)n1 [Gemcitabine] | 0.2 (≈ 0.76 µM) | 0.2 (≈ 0.76 µM) | 0.01 (≈ 0.038 µM) | 0.01 (≈ 0.038 µM) | – | – | Cytotoxicity under a hypoxic condition compared with that under a normal oxygen condition (tumor cells): no significant difference; IC50 [1, 4]: 0.2 mg/L (≈ 0.76 µM); IC50 [1, 5]: 0.2 mg/L (≈ 0.76 µM)
C[C@H](NP(=O)(OC[C@H]1O[C@@H](n2ccc(N)nc2=O)C(F)(F)[C@@H]1O)Oc1ccccc1)C(=O)OCc1ccccc1 (stereo partly shown) [NUC-1031, reference compound] | 0.2 (≈ 0.345 µM) | 0.2 (≈ 0.345 µM) | 0.01 (≈ 0.0172 µM) | 0.01 (≈ 0.0172 µM) | – | – | Cytotoxicity under a hypoxic condition compared with that under a normal oxygen condition (tumor cells): no significant difference; IC50 [1, 4]: 0.1 mg/L (≈ 0.172 µM); IC50 [1, 5]: 0.1 mg/L (≈ 0.172 µM)
